The text below walks through data of patent US20260217693A1, “SRPK1 INHIBITORS AND METHODS OF USE” (ALLIANTHERA (SUZHOU) BIOPHARMACEUTICAL CO., LTD., priority 2023, published 2026).

As a reminder, the pIC50 is the IC50 on a negative log10 scale, so that one unit is a factor of ten. The low end stands for a large IC50, the high end for a small IC50.

SMILES strings stand for the structures. pIC50: −log10 of the molar value.

T1 sequence (Q96SB4 whole entry): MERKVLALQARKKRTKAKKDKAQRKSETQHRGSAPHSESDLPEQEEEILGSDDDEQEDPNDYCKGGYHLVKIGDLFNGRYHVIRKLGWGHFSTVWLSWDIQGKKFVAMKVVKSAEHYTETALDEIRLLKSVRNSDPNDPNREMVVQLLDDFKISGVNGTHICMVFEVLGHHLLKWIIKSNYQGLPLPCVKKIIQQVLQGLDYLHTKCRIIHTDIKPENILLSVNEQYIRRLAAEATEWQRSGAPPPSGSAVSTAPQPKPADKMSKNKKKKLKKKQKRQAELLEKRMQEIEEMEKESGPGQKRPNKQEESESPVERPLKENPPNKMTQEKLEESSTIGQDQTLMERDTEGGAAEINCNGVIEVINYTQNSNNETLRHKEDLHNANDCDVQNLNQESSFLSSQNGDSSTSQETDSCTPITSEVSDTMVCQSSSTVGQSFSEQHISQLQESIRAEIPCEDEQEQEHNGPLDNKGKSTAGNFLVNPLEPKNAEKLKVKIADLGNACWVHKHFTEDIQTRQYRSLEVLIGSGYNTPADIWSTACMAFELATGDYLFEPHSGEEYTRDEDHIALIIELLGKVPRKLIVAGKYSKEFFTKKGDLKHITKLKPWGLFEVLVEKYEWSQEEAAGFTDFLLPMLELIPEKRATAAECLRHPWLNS

One experiment concerns the target T1, SRPK1 (Homo sapiens, UniProt Q96SB4). The experiment can be described thus: SRPK1 assay, Method 1 (ADP-Glo luminescence). In kind it is biochemical. The settings on record: Method 1 (no asterisk): substrate Human SRSF1/SF2, 25° C. for 90 min, test compounds 30 μM top, 3-fold, duplicate. How it is done:
(§1) The SPRK1 assay was performed as follows:
Method 1: The assay buffer was prepared. The reference compound was diluted to 10 mM. The test compounds were prepared at a concentration of 30 mM. Fifteen nL of compounds/DMSO were transferred to a multi-well plate. Then, 7.5 ul enzyme SRPK1 was added to each well, the plate was spun down at 1000 rpm and centrifuged for 30 sec. Then, 7.5 ul substrate Human SRSF1/SF2 was added to each well, the plate spun down at 1000 rpm and centrifuged for 30 sec. The plate was then incubated at 25° C. for 90 min. After 90 min, 5 μl of ADP-Glo™ Reagent was added to each well and the plate incubated at room temperature for 60 minutes. Then, 10 μl of Kinase Detection Reagent was added to each well and the plate incubate at room temperature for 60 minutes. The luminescence of each well was recorded on Envision. The test compounds were at 30 μM top, 3-fold, in duplicate, and the final concentration of DMSO was 0.1%.
All assays were performed using Method 1, except where indicated with an asterisk (*) in the below table, indicating Method 2 was used.
A general note: ADP-Glo turns the ADP formed in a reaction into a luminescent signal.
`O=C1CCC2(CCN(c3ncc(C(F)(F)F)cc3NC(=O)c3ccc(C4CCOCC4)o3)CC2)N1` [Compound 081] gave a pIC50 of 6.67. Same read-out and setting: the value for `O=C(Nc1cc(C(F)(F)F)cnc1N1CCC(O)CC1)c1cccc(Cl)n1` [Compound 087] was 6.60; that for `O=C(Nc1cc(C(F)(F)F)cnc1N1CCC(O)CC1)c1ccc(-c2ccnc(O)c2)o1` [Compound 021] was 7.87; that for `O=C(Nc1cc(C(F)(F)F)cnc1-c1ccccc1)c1ccc(C2CCOCC2)o1` [Compound 008] was less than 4.52. Regarding `O=C(Nc1cc(C(F)(F)F)cnc1N1CCC(O)CC1)c1ccc(C(F)(F)F)cn1` [Compound 077], the negative logarithm of the IC50 (pIC50) is less than 4.52. The same measure, in the same setting: the value for `Cn1cc(-c2ccc(C(=O)Nc3cc(C(F)(F)F)cnc3N3CCC(O)CC3)o2)cn1` [Compound 054] was 7.73.

The molecule `CN(C)C(=O)C1(C)CCN(c2ncc(C(F)(F)F)cc2NC(=O)c2ccc(C3CCOCC3)o2)CC1` [Compound 045] gave a negative logarithm of the IC50 (pIC50) of 7.07.

With `O=C(Nc1cc(C(F)(F)F)cnc1N1CCC(CO)C1)c1ccc(C2CCOCC2)o1` (centres unmarked) [Compound 038], the pIC50 was 4.61. Against the preceding molecule, the pIC50 is 2.46 log units lower.

The target in a further experiment is T1, SRPK1. The experiment can be described thus: SRPK1 assay, Method 2 (ADP-Glo luminescence). Type of experiment: biochemical. The settings on record: Method 2 (asterisk): substrate Human SRSF1/SF2 0.15 μM, ATP 4 μM, 25° C. for 3 h, test compounds 100 nM top, 3-fold, 10 dose. How it is done: as §1
Method 2: The assay buffer was prepared. The reference compound was diluted to 1 mM in the assay buffer. The test compounds were prepared at a concentration of 100 μM, then diluted 3-fold. Five nL of compounds/DMSO were transferred to 384-well plate. The reference compound is 1000 nM top concentration, 3-fold, 10 dose. The test compounds are 100 nM top concentration, 3-fold, 10 dose. 2.5 ul of enzyme (SRPK1 final concentration at […]) was added to each well, then the plate was spun down at 1000 rpm and centrifuged for 30 sec. After, 2.5 ul substrate (Human SRSF1/SF2 final concentration of 0.15 μM, ATP final concentration of 4 μM) was added to the plate, spun down at 1000 rpm and centrifuged for 30 sec. The plate was then placed in an incubator at 25° C. for 3 h. Then, 5 μl of ADP-Glo™ Reagent was added to each well, and the plate incubated at room temperature for 60 minutes. After 60 min, 10 μl of Kinase Detection Reagent was added to each well, and the plate was incubated at room temperature for 30 minutes. The luminescence of each well was recorded on Envision.
All assays were performed using Method 1, except where indicated with an asterisk (*) in the below table, indicating Method 2 was used. I.A. indicates an IC50 greater than 30 μM.
`O=C(Nc1cc(C(F)(F)F)cnc1N1CCC(O)CC1)c1ccc(-c2cn[nH]c2)cn1` [Compound 097, N-[2-(4-hydroxy-1-piperidyl)-5-(trifluoromethyl)-3-pyridyl]-5-(1H-pyrazol-4-yl)pyridine-2-carboxamide]: the negative-log IC50 (pIC50) is 8.49.

Regarding `O=C(Nc1cc(C2CC2)cnc1N1CCC(O)CC1)c1ccc(-c2ccnc(O)c2)o1` [Compound 022], the pIC50 is 8.85. For the molecule `Nc1cc(-c2ccc(C(=O)Nc3cc(C4CC4)cnc3N3CCC(O)CC3)o2)ccn1` [Compound 018], the pIC50 is 9.03. The pIC50 values of the last two molecules are within 0.2 log units of each other. On the same count and under the same terms, the value for `O=C(Nc1cc(C(F)(F)F)cnc1N1CCC(O)CC1)c1ccc(-c2cn[nH]c2)o1` [Compound 053] was 8.70; that for `CC1(C(N)=O)CCN(c2ncc(C(F)(F)F)cc2NC(=O)c2ccc(C3CCOCC3)o2)CC1` [Compound 048] was 7.60; that for `Nc1cc(-c2ccc(C(=O)Nc3cc(C(F)(F)F)cnc3N3CCC(O)CC3)o2)ccn1` [Compound 015] was 8.40. In the case of `CC1(O)CCN(c2ncc(C3CC3)cc2NC(=O)c2ccc(-c3cn[nH]c3)o2)CC1` [Compound 095, N-[5-cyclopropyl-2-(4-hydroxy-4-methyl-1-piperidyl)-3-pyridyl]-5-(1H-pyrazol-4-yl) furan-2-carboxamide], the negative logarithm of the IC50 (pIC50) is 9.11. Same read-out and setting: the result for `Nc1cc(-c2ccc(C(=O)Nc3cc(C4CC4)cnc3N3CCC(O)CC3)o2)cc(N)n1` [Compound 020] reads 9.61; that for `O=C(Nc1cc(C2CC2)cnc1N1CCC(O)CC1)c1ccc(-c2cn[nH]c2)o1` [Compound 086], 9.21.
